Assay results from US20190175534A1, “PHARMACEUTICAL COMPOSITIONS COMPRISING DGLA AND USE OF SAME” (DS Biopharma Limited, priority 2016, published 2019).
Values belong to the molecule of their own block, whether it stands above or below them.

Legend:
[1] = system: spontaneous hypertensive rats; experiment: Arterial pressure in spontaneous hypertensive rats after seven days of gavage, with intravenous phenylephrine challenge; format: in vivo, rat
[2] = set-up: species or system human; settings: in vivo, po
Method: A single-center, double-blind, randomized, placebo-controlled, two part Phase one study was performed in healthy male and female subjects aged 18 to 45 years inclusive. The primary objective of this study was to assess the safety and plasma pharmacokinetics (PK) of orally administered single doses and orally administered multiple doses of DS107G capsules (once daily for 28 days) in healthy subjects.
Subjects were randomly assigned in a 3:1 ratio of DG107G to placebo by block randomization. Single dose part one of the study comprised three cohorts of eight subjects each, with the addition of Cohort four based on evaluation of the safety data of Cohort three by the Safety Monitoring Committee (SMC). A single oral dose of DS107G or matching placebo was administered to fasted subjects in Cohorts one to three (500, 1000, and 2000 mg, respectively) in parallel; subjects in Cohort four were administered a dose of 4000 mg following completion of Cohort three. Subjects in Cohort two received 1000 mg or matching placebo in the fed state at ≥14 days after the first dose.
Safety assessments were monitored throughout the study.
In Part one of the study, subjects in Cohorts one to three were administered a single dose of study drug (either 500-, 1000-, or 2000-mg as 500-mg DS107G capsules or matching placebo capsules) in parallel on study Day 1 after at least an 8-hour fast, according to Table 20. Cohort 4 was initiated following the review of safety data from Cohort 3 by the SMC.

SMILES: CC(=O)Oc1ccccc1C(=O)O [Aspirin, aspirin]
- Mean arterial pressure, Average SAP ([1]; Aspirin gavage 7 days, phenylephrine 20 μg/kg iv): 174.3

- Free 15-HETrE plasma concentration [2]: < 100 ng/mL
SMILES: CCCCC[C@H](O)/C=C/C=C\C/C=C\CCCCCCC(=O)O [Batch 15-HETrE, 15-Hydroxyeicosatrienoic acid]

SMILES: COc1ccccc1OCCNCC(O)COc1cccc2[nH]c3ccccc3c12 (stereo not drawn) [Carvedilol, carvedilol]
- Effect on mean systemic arterial pressure when added after phenylephrine ([1]; 0.1 mg/kg i.v., aspirin-fed rats): significant decrease
